These results are taken from patent US8158638B2, “Pyrazolopyrimidine derivative” (Daiichi Sankyo Company, Limited, priority 2006, dated 2012).

The target in assay [1] is T1, recombinant yeast Hsp90 protein (rHsp90) (Saccharomyces cerevisiae, UniProt P02829).
T1 construct: made in house; host or cells: Escherichia coli
Kind of assay: Hsp90 ATPase assay. The assay is classed as biochemical. The settings on record: rHsp90 100 μg/mL, ATP 100 μM, 37° C., two hours, BIOMOL GREEN; read-out: IC50 value (concentration for 50% inhibition of ATP activity). The method, then: An Hsp90 ATPase assay was performed using a recombinant yeast Hsp90 protein (hereinafter called rHsp90). Yeast Hsp90 DNA was cloned from a yeast genomic DNA library according to a conventional method. The cloned yeast Hsp90 DNA was incorporated into a plasmid for expression in Escherichia coli, and the plasmid was expressed in Escherichia coli to obtain rHsp90.
The test compound was dissolved in DMSO to 10 mM. The dissolved solution was diluted with DMSO to eight concentrations ranging in three-fold dilutions from 4 mM. Each diluted solution was further 10-fold diluted with an assay buffer (100 mM Tris, pH 7.4, 20 mM KCl, 6 mM MgCl2) (concentration of each test compound solution: 400 μM, 133 μM, 44.4 μM, 14.8 μM, 4.94 μM, 1.65 μM, 0.549 μM, 0.183 μM; DMSO concentration: 10%).
rHsp90 was dissolved in a TE buffer (20 mM Tris, pH 7.4, 1 mM EDTA) to a concentration of 2.531 mg/mL. The dissolved solution was diluted with assay buffer to 125 μg/mL and dispensed to a 96-well assay plate at 40 μL per well (final concentration: 100 μg/mL).
The test compound solution was dispensed at 5 μL per well, and then the solutions in the respective wells were mixed using a plate mixer. 100 mM ATP (Sigma, Catalog No. A-7699) was diluted with assay buffer to 1 mM and dispensed at 5 μL per well (final concentration: 100 μM). The solutions in the respective wells were mixed using a plate mixer, and then the assay plate was allowed to stand in an incubator set at 37° C. for two hours.
BIOMOL GREEN Reagent (BIOMOL, Catalog No. AK-111) was dispensed at 100 μL per well, and the reaction was terminated. The solutions in the respective wells were mixed by pipetting (three times), and then 34% sodium citrate was dispensed at 10 μL per well. The solutions in the respective wells were mixed by pipetting (three times), and then the assay plate was left to stand at room temperature for 10 minutes. The absorbance at 630 nm of each well was measured with a microplate reader.
The ratio of the absorbance of the test compound-added group to the absorbance of the test compound-free group (T/C value) was determined by the following calculation formula, based on the assumption that the absorbance of the well to which the test compound and rHsp90 were added was A, the absorbance of the well to which only rHsp90 was added was B, and the absorbance of the well to which neither the test compound nor rHsp90 was added was C. T/C=(A−C)/(B−C)
Further, the concentration for 50% inhibition of ATP activity (IC50 value) was calculated using GraphPad Prism 4 (GraphPad Software, Inc.).

Assay [2] deals with human breast cancer cell line SK-BR-3. Nature of the assay: Cell growth inhibition assay (MTT), SK-BR-3. It is filed as cell-based. The note with it: read-out: GI50 value (50% growth inhibitory concentration). The method, then:
(§1) A cell growth inhibition assay was performed using two types of cells (human breast cancer cell line SK-BR-3 and human lung cancer cell line NCI-H460).
(§2) Cells of each type were suspended in a medium and seeded into a 96-well multi-well plate at 500 cells/150 μl/well. The test compound was dissolved in DMSO, and this was diluted with medium to prepare a sample solution (DMSO concentration: 0.5% or less). On the day following the seeding, 50 μL of DMSO-containing medium to which the test compound was not added (hereinafter called DMSO diluted solution; DMSO concentration: 0.5% or less) or the sample solution was added to the cells. An MTT assay was performed immediately after and 72 hours after adding the sample solution or the DMSO diluted solution to the cells. The MTT assay was performed as follows.
(§3) 5 mg/mL of an MTT (3-(4,5-dimethylthiazol-2-yl)-2,5-diphenyltetrazolium bromide) solution was added at 20 μL per well. Thereafter, the plate was incubated at 37° C. in 5% CO2 for four hours. The plate was centrifuged at 1200 rpm for five minutes, and then the culture supernatant was removed by suction using a dispenser. DMSO was added at 150 μL per well, and the generated formazan was dissolved. The plate was stirred using a plate mixer to uniformly color the respective wells. The absorbance of each well was measured using a plate reader at an OD of 540 nm with a reference of 660 nm.
(§4) T/C (%) for each concentration was determined by the following calculation formula and a dose-response curve was drawn to calculate the 50% growth inhibitory concentration (GI50 value), based on the assumption that the OD value measured immediately after adding the sample solution was S, the OD value measured 72 hours after adding the sample solution was T, and the OD value measured 72 hours after adding the DMSO diluted solution was C. T/C(%)=(T−S)/(C−S)×100

For assay [3], the system named is human lung cancer cell line NCI-H460. Kind of assay: Cell growth inhibition assay (MTT), NCI-H460. The settings on record: read-out: GI50 value (50% growth inhibitory concentration). The assay is classed as cell-based. The method, then: as §1, §2, §3, §4
[4] abbreviates: Homo sapiens, SK-BR-3, MTT assay, 72 hours.
The mark [5] stands for this setting: Homo sapiens, NCI-H460, MTT assay, 72 hours.

pIC50: −log10 of the molar value. Like-named read-outs stand apart in the source and are kept apart here.

T1 sequence (P02829 whole entry): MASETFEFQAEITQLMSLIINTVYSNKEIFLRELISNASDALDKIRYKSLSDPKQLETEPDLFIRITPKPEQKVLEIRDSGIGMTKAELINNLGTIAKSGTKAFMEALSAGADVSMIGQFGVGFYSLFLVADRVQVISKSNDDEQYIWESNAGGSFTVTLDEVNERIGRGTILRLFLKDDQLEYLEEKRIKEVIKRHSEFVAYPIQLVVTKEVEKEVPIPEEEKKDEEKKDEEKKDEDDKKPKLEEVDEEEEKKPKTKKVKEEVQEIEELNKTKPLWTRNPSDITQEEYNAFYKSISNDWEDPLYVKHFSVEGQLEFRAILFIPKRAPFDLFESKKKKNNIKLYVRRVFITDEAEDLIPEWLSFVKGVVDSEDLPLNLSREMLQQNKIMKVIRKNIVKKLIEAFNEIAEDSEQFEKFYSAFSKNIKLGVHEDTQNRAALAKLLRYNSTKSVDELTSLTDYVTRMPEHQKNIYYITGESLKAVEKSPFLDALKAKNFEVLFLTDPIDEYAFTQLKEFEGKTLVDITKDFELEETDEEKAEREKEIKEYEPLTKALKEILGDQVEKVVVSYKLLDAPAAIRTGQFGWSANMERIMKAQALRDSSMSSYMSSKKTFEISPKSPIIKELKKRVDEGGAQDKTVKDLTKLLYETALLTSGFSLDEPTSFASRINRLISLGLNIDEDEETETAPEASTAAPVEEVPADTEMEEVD

With `COc1c(C)cnc(Cn2nc3c4c(nc(N)nc42)SCC(N(C)C(C)=O)C3)c1C` (stereo not drawn) [Example 99, N-{4-Amino-2-[(4-methoxy-3,5-dimethylpyridin-2-yl)methyl]-2,7,8,9-tetrahydro-6-thia-1,2,3,5-tetraazabenzo[cd]azulen-8-yl}-N-methylacetamide], the pIC50 in assay [1] was 6.09. Also, the GI50 was found to be 320 nM in assay [2] (setting [4]) and 650 nM in assay [3] (setting [5]).

For the molecule `COc1c(C)cnc(Cn2nc3c4c(nc(N)nc42)SCC=C3)c1C` [Example 36, 2-[(4-Methoxy-3,5-dimethylpyridin-2-yl)methyl]-2,7-dihydro-6-thia-1,2,3,5-tetraazabenzo[cd]azulen-4-amine], the pIC50 in assay [1] was 6.01. The GI50 in assay [2] (setting [4]) is 52 nM; in assay [3] (setting [5]), 86 nM.

With `COc1c(C)cnc(Cn2nc3c4c(nc(N)nc42)SC(C(=O)Nc2ncc(C)s2)C3)c1C` (stereo not drawn) [Example 194, 4-Amino-2-[(4-methoxy-3,5-dimethylpyridin-2-yl)methyl]-N-(5-methyl-1,3-thiazol-2-yl)-7,8-dihydro-2H-6-thia-1,2,3,5-tetraazaacenaphthylene-7-carboxamide], in assay [1], the pIC50 is 5.74. Further, the values for the GI50 in assay [2] (setting [4]) and in assay [3] (setting [5]) were 17 nM and 37 nM, respectively.

In the case of `COc1ccnc(Cn2nc3c4c(nc(N)nc42)SCC3)c1C` [Example 164, 2-[(4-Methoxy-3-methylpyridin-2-yl)methyl]-7,8-dihydro-2H-6-thia-1,2,3,5-tetraazaacenaphthylen-4-amine], the pIC50 in assay [1] is 6.01. The GI50 in assay [2] (setting [4]) turned out to be 410 nM; in assay [3] (setting [5]), 760 nM.

Turning to `COc1c(C)cnc(Cn2nc3c4c(nc(N)nc42)SC(C(=O)NC2CC2)C3)c1C` (stereo not drawn) [Example 12, 4-Amino-N-cyclopropyl-2-[(4-methoxy-3,5-dimethylpyridin-2-yl)methyl]-7,8-dihydro-2H-6-thia-1,2,3,5-tetraazaacenaphthylene-7-carboxamide], in assay [1], the pIC50 is 5.66. For the same molecule, the GI50 in assay [2] (setting [4]) was 150 nM; in assay [3] (setting [5]), 460 nM.

For `COc1c(C)cnc(Cn2nc3c4c(nc(N)nc42)SCC(CCO)=C3)c1C` [Example 111, 2-{4-Amino-2-[(4-methoxy-3,5-dimethylpyridin-2-yl)methyl]-2,7-dihydro-6-thia-1,2,3,5-tetraazabenzo[cd]azulen-8-yl}ethanol], the pIC50 in assay [1] is 6.09. Also, the GI50 in assay [2] (Homo sapiens, SK-BR-3, 72 h) turned out to be 49 nM; in assay [3] (Homo sapiens, NCI-H460, 72 h), 94 nM.

For the molecule `COc1c(C)cnc(Cn2nc3c4c(nc(N)nc42)SC=C3)c1C` [Example 151, 2-[(4-Methoxy-3,5-dimethylpyridin-2-yl)methyl]-2H-6-thia-1,2,3,5-tetraazaacenaphthylen-4-amine], in assay [1], the pIC50 was 6.05. Further, the GI50 in assay [2] (Homo sapiens, SK-BR-3, 72 h) was 48 nM; in assay [3] (Homo sapiens, NCI-H460, 72 h), 110 nM.

Consider `COc1c(C)cnc(Cn2nc3c4c(nc(N)nc42)SC(C#N)C3)c1C` (stereo not drawn) [Example 4, 4-Amino-2-[(4-methoxy-3,5-dimethylpyridin-2-yl)methyl]-7,8-dihydro-2H-6-thia-1,2,3,5-tetraazaacenaphthylene-7-carbonitrile], for which the pIC50 in assay [1] is 6.06. Also, the GI50 was 44 nM in assay [2] (setting [4]) and 69 nM in assay [3] (setting [5]).

On to `COc1c(C)cnc(Cn2nc3c4c(nc(N)nc42)SCC(CCN2CCCC2)=C3)c1C` [Example 141, 2-[(4-Methoxy-3,5-dimethylpyridin-2-yl)methyl]-8-(2-pyrrolidin-1-ylethyl)-2,7-dihydro-6-thia-1,2,3,5-tetraazabenzo[cd]azulen-4-amine], for which the pIC50 in assay [1] was 6.00. Also, the GI50 is 41 nM in assay [2] (Homo sapiens, SK-BR-3, 72 h) and 260 nM in assay [3] (Homo sapiens, NCI-H460, 72 h).

For the molecule `COc1c(C)cnc(Cn2nc3c4c(nc(N)nc42)SCC(NC(C)=O)C3)c1C` (stereo not drawn) [Example 43, N-{4-Amino-2-[(4-methoxy-3,5-dimethylpyridin-2-yl)methyl]-2,7,8,9-tetrahydro-6-thia-1,2,3,5-tetraazabenzo[cd]azulen-8-yl}acetamide], in assay [1], the pIC50 was 5.85. Also, the GI50 was found to be 91 nM in assay [2] (setting [4]) and 253 nM in assay [3] (setting [5]).

For “N^8-(S)-Cyclopropyl-2-[(4-methoxy-3,5-dimethylpyridin-2-yl)methyl]-2,7,8,9-tetrahydro-6-thia-1,2,3,5-tetraazabenzo[cd]azulene-4,8-diamine [Example 181]”, the pIC50 in assay [1] was 5.51. Also, the GI50 in assay [2] (SK-BR-3, MTT assay, 72 hours) came to 45 nM; in assay [3] (NCI-H460, MTT assay, 72 hours), 76 nM.

As for `Cn1c(=O)c(Cn2nc3c4c(nc(N)nc42)SCC3)cc2ccccc21` [Example 165, 3-[(4-Amino-7,8-dihydro-2H-6-thia-1,2,3,5-tetraazaacenaphthylen-2-yl)methyl]-1-methylquinolin-2(1H)-one], the pIC50 in assay [1] is 5.70. The GI50 in assay [2] (setting [4]) amounted to 6800 nM; in assay [3] (setting [5]), 16000 nM.

`CCNC(=O)CC1=Cc2nn(Cc3ncc(C)c(OC)c3C)c3nc(N)nc(c23)SC1` [Example 118, 2-{4-Amino-2-[(4-methoxy-3,5-dimethylpyridin-2-yl)methyl]-2,7-dihydro-6-thia-1,2,3,5-tetraazabenzo[cd]azulen-8-yl}-N-ethylacetamide]: the pIC50 in assay [1] was 6.21. Further, the GI50 in assay [2] (Homo sapiens, SK-BR-3, 72 h) worked out at 33 nM; in assay [3] (Homo sapiens, NCI-H460, 72 h), 510 nM.

Turning to `Nc1nc2c3c(nn(Cc4cc5ccccc5cn4)c3n1)CCS2` [Example 153], the pIC50 in assay [1] is 5.72. In addition, the GI50 worked out at 2600 nM in assay [2] (setting [4]) and 5900 nM in assay [3] (setting [5]).

`COc1c(C)cnc(Cn2nc3c4c(nc(N)nc42)SCC(CC(=O)N2CCC2)=C3)c1C` [Example 123, 8-(2-Azetidin-1-yl-2-oxoethyl)-2-[(4-methoxy-3,5-dimethylpyridin-2-yl)methyl]-2,7-dihydro-6-thia-1,2,3,5-tetraazabenzo[cd]azulen-4-amine]: the pIC50 in assay [1] is 6.20. Further, the figures for the GI50 in assay [2] (setting [4]) and in assay [3] (setting [5]) were 38 nM and 71 nM, respectively.
